Target: WDR5 (Homo sapiens (Human), UniProt P61964)
Test: Surface Plasmon Resonance (SPR) assay, KD and residence time
Type: binding
Details: surface plasmon resonance (SPR); read-out: WDR5 binding affinity (KD)

| SMILES | Kd [nM] |
| --- | --- |
| C[C@@H]1CN(c2cc(F)c(-c3cc(F)c(C(=O)NC4CCCCC4)c(F)c3)cc2NC(=O)c2c[nH]c(=O)cc2C(F)(F)F)C[C@H](C)N1C [Example 710, N-[5-[4-(cyclohexylcarbamoyl)-3,5-difluorophenyl]-4-fluoro-2-[(3R,5S)-3,4,5-trimethylpiperazin-1-yl]phenyl]-6-oxo-4-(trifluoromethyl)-1H-pyridine-3-carboxamide] | 2.03 |
| C[C@@H]1CN(c2cc(F)c(-c3cc(F)c(C(=O)NC4CCCCC4(C)C)c(F)c3)cc2NC(=O)c2c[nH]c(=O)cc2C(F)(F)F)C[C@H](C)N1C (stereo partly drawn) [Example 711, N-[5-[4-[(2,2-dimethylcyclohexyl)carbamoyl]-3,5-difluorophenyl]-4-fluoro-2-[(3R,5S)-3,4,5-trimethylpiperazin-1-yl]phenyl]-6-oxo-4-(trifluoromethyl)-1H-pyridine-3-carboxamide] | 3.17 |
| C[C@@H]1CN(c2cc(F)c(-c3cc(F)c(C(=O)NCC4CC4)c(F)c3)cc2NC(=O)c2c[nH]c(=O)cc2C(F)(F)F)C[C@H](C)N1C [Example 712, N-[5-[4-(cyclopropylmethylcarbamoyl)-3,5-difluorophenyl]-4-fluoro-2-[(3R,5S)-3,4,5-trimethylpiperazin-1-yl]phenyl]-6-oxo-4-(trifluoromethyl)-1H-pyridine-3-carboxamide] | 2.23 |
| C[C@@H]1CN(c2cc(F)c(-c3csc(CN4CCOCC4)n3)cc2NC(=O)c2c[nH]c(=O)cc2C(F)(F)F)C[C@H](C)N1C [Example 713, N-[4-fluoro-5-[2-(morpholin-4-ylmethyl)-1,3-thiazol-4-yl]-2-[(3R,5S)-3,4,5-trimethylpiperazin-1-yl]phenyl]-6-oxo-4-(trifluoromethyl)-1H-pyridine-3-carboxamide] | 2.59 |
| C[C@@H]1CN(c2cc(F)c(-c3cnn(CCN4CCOCC4)c3)cc2NC(=O)c2c[nH]c(=O)cc2C(F)(F)F)C[C@H](C)N1C [Example 716, N-[4-fluoro-5-[1-(2-morpholin-4-ylethyl)pyrazol-4-yl]-2-[(3R,5S)-3,4,5-trimethylpiperazin-1-yl]phenyl]-6-oxo-4-(trifluoromethyl)-1H-pyridine-3-carboxamide] | 2.42 |
| C[C@@H]1CN(c2cc(F)c(-c3cnn(CCN4CCOCC4)c3)cc2NC(=O)c2cn(C)c(=O)cc2C(F)F)C[C@H](C)N1C [Example 717, 4-(difluoromethyl)-N-[4-fluoro-5-[1-(2-morpholin-4-ylethyl)pyrazol-4-yl]-2-[(3R,5S)-3,4,5-trimethylpiperazin-1-yl]phenyl]-1-methyl-6-oxopyridine-3-carboxamide] | 21.6 |
| CC(C)OC(=O)N1CCC=C(c2cc(NC(=O)c3c[nH]c(=O)cc3C(F)F)c(N3C[C@@H](C)N(C)[C@@H](C)C3)cc2F)C1 [Example 725, propan-2-yl 5-[5-[[4-(difluoromethyl)-6-oxo-1H-pyridine-3-carbonyl]amino]-2-fluoro-4-[(3R,5S)-3,4,5-trimethylpiperazin-1-yl]phenyl]-3,6-dihydro-2H-pyridine-1-carboxylate] | 1.59 |
| C[C@@H]1CN(c2cc(F)c(C3=CCCN(C(=O)OC4(C)CCC4)CC3)cc2NC(=O)c2c[nH]c(=O)cc2C(F)F)C[C@H](C)N1C [Example 729, (1-methylcyclobutyl) 4-[5-[[4-(difluoromethyl)-6-oxo-1H-pyridine-3-carbonyl]amino]-2-fluoro-4-[(3R,5S)-3,4,5-trimethylpiperazin-1-yl]phenyl]-2,3,6,7-tetrahydroazepine-1-carboxylate] | 3.11 |
| C[C@@H]1CN(c2cc(F)c(-c3ccc(C(=O)NC4CCC(F)(F)CC4)c(F)c3)cc2NC(=O)c2c[nH]c(=O)cc2C(F)(F)F)C[C@H](C)N1C [Example 734, N-[5-[4-[(4,4-difluorocyclohexyl)carbamoyl]-3-fluorophenyl]-4-fluoro-2-[(3R,5S)-3,4,5-trimethylpiperazin-1-yl]phenyl]-6-oxo-4-(trifluoromethyl)-1H-pyridine-3-carboxamide] | 4.13 |
| C[C@@H]1CN(c2cc(F)c(-c3ccc(C(=O)NCC4CC4)c(F)c3)cc2NC(=O)c2c[nH]c(=O)cc2C(F)(F)F)C[C@H](C)N1C [Example 735, N-[5-[4-(cyclopropylmethylcarbamoyl)-3-fluorophenyl]-4-fluoro-2-[(3R,5S)-3,4,5-trimethylpiperazin-1-yl]phenyl]-6-oxo-4-(trifluoromethyl)-H-pyridine-3-carboxamide] | 4.23 |
| C[C@@H]1COCCN1c1ncc(-c2cc(NC(=O)c3ccc(F)cc3C(F)(F)F)c(N3CCN(C)[C@@H](C)C3)cc2F)cn1 [Example 737, 4-fluoro-N-[4-fluoro-2-[(3S)-3,4-dimethylpiperazin-1-yl]-5-[2-[(3R)-3-methylmorpholin-4-yl]pyrimidin-5-yl]phenyl]-2-(trifluoromethyl)benzamide] | 4.61 |
| C[C@@H]1CN(c2nccc(-c3cc(NC(=O)c4ccc(F)cc4C(F)(F)F)c(N4CCN(C)[C@@H](C)C4)cc3F)n2)CCO1 [Example 738, 4-fluoro-N-[4-fluoro-2-[(3S)-3,4-dimethylpiperazin-1-yl]-5-[2-[(2R)-2-methylmorpholin-4-yl]pyrimidin-4-yl]phenyl]-2-(trifluoromethyl)benzamide] | 4 |
| C[C@@H]1CN(c2cc(F)c(-c3nc(CN4CCOCC4)cs3)cc2NC(=O)c2cn(C)c(=O)cc2C(F)F)C[C@H](C)N1C [Example 741, 4-(difluoromethyl)-N-[4-fluoro-5-[4-(morpholin-4-ylmethyl)-1,3-thiazol-2-yl]-2-[(3R,5S)-3,4,5-trimethylpiperazin-1-yl]phenyl]-1-methyl-6-oxopyridine-3-carboxamide] | 6.75 |
| C[C@@H]1CN(c2nccc(-c3cc(NC(=O)c4cn(C)c(=O)cc4C(F)F)c(N4C[C@@H](C)N(C)[C@@H](C)C4)cc3F)n2)C[C@H](C)O1 [Example 745, 4-(difluoromethyl)-N-[4-fluoro-5-[2-[(2R,6S)-2,6-dimethylmorpholin-4-yl]pyrimidin-4-yl]-2-[(3R,5S)-3,4,5-trimethylpiperazin-1-yl]phenyl]-1-methyl-6-oxopyridine-3-carboxamide] | 5.6 |

Next, values leading:

| Kd [nM] | SMILES |
| --- | --- |
| 0.72 | C[C@@H]1CN(c2cc(F)c(C3=CCN(c4ccnc(C#N)n4)CC3)cc2NC(=O)c2c[nH]c(=O)cc2C(F)(F)F)C[C@H](C)N1C [Example 709, N-[5-[1-(2-cyanopyrimidin-4-yl)-3,6-dihydro-2H-pyridin-4-yl]-4-fluoro-2-[(3R,5S)-3,4,5-trimethylpiperazin-1-yl]phenyl]-6-oxo-4-(trifluoromethyl)-1H-pyridine-3-carboxamide] |
| 1.36 | C[C@@H]1CN(c2cc(F)c(-c3cnc(N4CCOCC4)nc3)cc2NC(=O)c2ccc(F)cc2C(F)F)C[C@H](C)N1C [Example 722, 2-(difluoromethyl)-4-fluoro-N-[4-fluoro-5-(2-morpholin-4-ylpyrimidin-5-yl)-2-[(3R,5S)-3,4,5-trimethylpiperazin-1-yl]phenyl]benzamide] |
| 3.12 | CC(C)OC(=O)N1CCC=C(c2cc(NC(=O)c3c[nH]c(=O)cc3C(F)F)c(N3C[C@@H](C)N(C)[C@@H](C)C3)cc2F)CC1 [Example 723, propan-2-yl 4-[5-[[4-(difluoromethyl)-6-oxo-1H-pyridine-3-carbonyl]amino]-2-fluoro-4-[(3R,5S)-3,4,5-trimethylpiperazin-1-yl]phenyl]-2,3,6,7-tetrahydroazepine-1-carboxylate] |
| 7.99 | C[C@@H]1CN(c2cc(F)c(C3=CCCN(C(=O)OC4CC(F)(F)C4)CC3)cc2NC(=O)c2c[nH]c(=O)cc2C(F)F)C[C@H](C)N1C [Example 730, (3,3-difluorocyclobutyl) 4-[5-[[4-(difluoromethyl)-6-oxo-1H-pyridine-3-carbonyl]amino]-2-fluoro-4-[(3R,5S)-3,4,5-trimethylpiperazin-1-yl]phenyl]-2,3,6,7-tetrahydroazepine-1-carboxylate] |
| 7.61 | C[C@@H]1CN(c2cc(F)c(C3=CCCN(c4ncc(C#N)s4)CC3)cc2NC(=O)c2c[nH]c(=O)cc2C(F)F)C[C@H](C)N1C [Example 731, N-[5-[1-(5-cyano-1,3-thiazol-2-yl)-2,3,6,7-tetrahydroazepin-4-yl]-4-fluoro-2-[(3R,5S)-3,4,5-trimethylpiperazin-1-yl]phenyl]-4-(difluoromethyl)-6-oxo-1H-pyridine-3-carboxamide] |
| 2.76 | C[C@@H]1CN(c2cc(F)c(-c3ccc(C(=O)NC4CCCCC4)c(F)c3)cc2NC(=O)c2c[nH]c(=O)cc2C(F)(F)F)C[C@H](C)N1C [Example 732, N-[5-[4-(cyclohexylcarbamoyl)-3-fluorophenyl]-4-fluoro-2-[(3R,5S)-3,4,5-trimethylpiperazin-1-yl]phenyl]-6-oxo-4-(trifluoromethyl)-1H-pyridine-3-carboxamide] |
| 1.29 | C[C@@H]1CN(c2cc(F)c(-c3ccc(C(=O)N(C)CC4CC4)c(F)c3)cc2NC(=O)c2c[nH]c(=O)cc2C(F)(F)F)C[C@H](C)N1C [Example 733, N-[5-[4-[cyclopropylmethyl(methyl)carbamoyl]-3-fluorophenyl]-4-fluoro-2-[(3R,5S)-3,4,5-trimethylpiperazin-1-yl]phenyl]-6-oxo-4-(trifluoromethyl)-1H-pyridine-3-carboxamide] |
| 5.22 | C[C@@H]1CN(c2nccc(-c3cc(NC(=O)c4cn(C)c(=O)cc4C(F)(F)F)c(N4C[C@@H](C)N(C)[C@@H](C)C4)cc3F)n2)C[C@H](C)O1 [Example 743, N-[4-fluoro-5-[2-[(2R,6S)-2,6-dimethylmorpholin-4-yl]pyrimidin-4-yl]-2-[(3R,5S)-3,4,5-trimethylpiperazin-1-yl]phenyl]-1-methyl-6-oxo-4-(trifluoromethyl)pyridine-3-carboxamide] |
| 2.76 | C[C@@H]1CN(c2nccc(-c3cc(NC(=O)c4c[nH]c(=O)cc4C(F)F)c(N4C[C@@H](C)N(C)[C@@H](C)C4)cc3F)n2)C[C@H](C)O1 [Example 744, 4-(difluoromethyl)-N-[4-fluoro-5-[2-[(2R,6S)-2,6-dimethylmorpholin-4-yl]pyrimidin-4-yl]-2-[(3S,5R)-3,4,5-trimethylpiperazin-1-yl]phenyl]-6-oxo-1H-pyridine-3-carboxamide] |
